# How the values were obtained:
# Format in all cases: functional
# Staphylococcus aureus [1] = assay: Antibacterial activity against ciprofloxacin-resistant methicillin-resistant Staphylococcus aureus by broth macrodilution method
# Klebsiella pneumoniae [2] = assay: Antibacterial activity against Klebsiella pneumoniae ATCC 13883 by broth macrodilution method at 48 hrs; conditions: ATCC 13883, 48 h
# Staphylococcus aureus [3] = assay: Antibacterial activity against ciprofloxacin-susceptible methicillin-resistant Staphylococcus aureus at 48 hrs by broth macrodilution method
# Staphylococcus aureus [4] = assay: Antibacterial activity against ciprofloxacin-susceptible methicillin-resistant Staphylococcus aureus by broth macrodilution method
# Klebsiella pneumoniae [5] = assay: Antibacterial activity against Klebsiella pneumoniae ATCC 13883 by broth macrodilution method
# Staphylococcus aureus [6] = assay: Antibacterial activity against ciprofloxacin-resistant methicillin-resistant Staphylococcus aureus at 48 hrs by broth macrodilution method
smiles,measurement,setting,value
C[C@H]1NCc2cc(-c3ccc4c(=O)c(C(=O)O)cn(C5CC5)c4c3OC(F)F)ccc21 [GARENOXACIN],MBC,Staphylococcus aureus [1],0.32 µg/mL
same,MIC,Staphylococcus aureus [1],0.16 µg/mL
same,MIC,Klebsiella pneumoniae [2],0.64 µg/mL
same,MIC,Staphylococcus aureus [3],0.08 µg/mL
same,MBC,Staphylococcus aureus [4],0.32 µg/mL
same,MIC,Staphylococcus aureus [4],0.04 µg/mL
same,MBC,Klebsiella pneumoniae [5],0.32 µg/mL
same,MIC,Klebsiella pneumoniae [5],0.16 µg/mL
same,MIC,Staphylococcus aureus [6],2.56 µg/mL
